Test results: ChEMBL document CHEMBL3885861, “Open TG-GATES”

Species: Rattus norvegicus
Assay: Open TG-GATES - Regimen: Daily Repeat
Format: toxicity, organism-based, Sprague-Dawley
Parameters: regimen Daily Repeat, gender Male, age 6 weeks
Details: in vivo, po, 200 mg/kg, route gavage, dose level High; for APTT / Bas / Eos / Fbg / Hb / Ht / Lym / MCH / MCHC / MCV / Mono / Neu / PT / Plat / RBC / Ret / WBC: tissue Blood; for KIDNEY_L / KIDNEY_R / KIDNEY_TOTAL: tissue Kidney; for LIVER: tissue Liver; for A/G / ALP / ALT / AST / BUN / CRE / Ca / Cl / DBIL / GLC / IP / K / LDH / Na / PL / RALB / TBIL / TC / TG / TP / gamma-GTP: tissue Plasma

CCc1oc2ccccc2c1C(=O)c1cc(Br)c(O)c(Br)c1 [BENZBROMARONE]
TERMINAL_BW (72 h, time 3 day): 217 g | APTT (72 h, time 3 day): 22.6 s | Bas (72 h, time 3 day): 0% | Eos (72 h, time 3 day): 1.2% | Fbg (72 h, time 3 day): 211 mg/dL | Hb (72 h, time 3 day): 14 g/dL | Ht (72 h, time 3 day): 41.9% | Lym (72 h, time 3 day): 80% | MCH (72 h, time 3 day): 21.9 pg | MCHC (72 h, time 3 day): 33.5% | MCV (72 h, time 3 day): 65.5 fL | Mono (72 h, time 3 day): 5% | Neu (72 h, time 3 day): 14.2% | PT (72 h, time 3 day): 14.6 s | Plat (72 h, time 3 day): 104.6 x10_4/uL | RBC (72 h, time 3 day): 640.8 x10_4/ul | Ret (72 h, time 3 day): 5.7% | WBC (72 h, time 3 day): 124.5 x10_2/uL | KIDNEY_L (72 h, time 3 day): 1 g | KIDNEY_R (72 h, time 3 day): 1 g | KIDNEY_TOTAL (72 h, time 3 day): 2 g | LIVER (72 h, time 3 day): 15.3 g | A/G (72 h, time 3 day): 2.6 | ALP (72 h, time 3 day): 1041.8 IU/L | ALT (72 h, time 3 day): 45.5 IU/L | AST (72 h, time 3 day): 69.2 IU/L | BUN (72 h, time 3 day): 17 mg/dL | CRE (72 h, time 3 day): 0.7 mg/dL | Ca (72 h, time 3 day): 10 mg/dL | Cl (72 h, time 3 day): 107.9 meq/L | DBIL (72 h, time 3 day): 0.025 mg/dL | GLC (72 h, time 3 day): 167.2 mg/dL | IP (72 h, time 3 day): 6.7 mg/dL | K (72 h, time 3 day): 4.4 meq/L | LDH (72 h, time 3 day): 195 IU/L | Na (72 h, time 3 day): 141.3 meq/L | PL (72 h, time 3 day): 129.2 mg/dL | RALB (72 h, time 3 day): 4.1 g/dL | TBIL (72 h, time 3 day): 0.3 mg/dL | TC (72 h, time 3 day): 73.2 mg/dL | TG (72 h, time 3 day): 52.8 mg/dL | TP (72 h, time 3 day): 5.7 g/dL | gamma-GTP (72 h, time 3 day): 1 IU/L | TERMINAL_BW ([…], time 7 day): 254.9 g | TERMINAL_BW ([…], time 14 day): 307.7 g | TERMINAL_BW ([…], time 28 day): 357.4 g | APTT ([…], time 7 day): 18.9 s | Bas ([…], time 7 day): 0% | Eos ([…], time 7 day): 1.5% | Fbg ([…], time 7 day): 238.5 mg/dL | Hb ([…], time 7 day): 14.4 g/dL | Ht ([…], time 7 day): 42.8% | Lym ([…], time 7 day): 75.5% | MCH ([…], time 7 day): 21.6 pg | MCHC ([…], time 7 day): 33.6% | MCV ([…], time 7 day): 64.1 fL | Mono ([…], time 7 day): 7% | Neu ([…], time 7 day): 16.2% | PT ([…], time 7 day): 12.2 s | Plat ([…], time 7 day): 113.7 x10_4/uL | RBC ([…], time 7 day): 668.5 x10_4/ul | Ret ([…], time 7 day): 5.2% | WBC ([…], time 7 day): 92.8 x10_2/uL | APTT ([…], time 14 day): 18.5 s | Bas ([…], time 14 day): 0% | Eos ([…], time 14 day): 1% | Fbg ([…], time 14 day): 224.4 mg/dL | Hb ([…], time 14 day): 14.3 g/dL | Ht ([…], time 14 day): 42.7% | Lym ([…], time 14 day): 73.6% | MCH ([…], time 14 day): 20.6 pg | MCHC ([…], time 14 day): 33.4% | MCV ([…], time 14 day): 61.6 fL | Mono ([…], time 14 day): 6.2% | Neu ([…], time 14 day): 19.8% | PT ([…], time 14 day): 12.5 s | Plat ([…], time 14 day): 99.2 x10_4/uL | RBC ([…], time 14 day): 694 x10_4/ul | Ret ([…], time 14 day): 4.5% | WBC ([…], time 14 day): 138 x10_2/uL | APTT ([…], time 28 day): 17.9 s | Bas ([…], time 28 day): 0% | Eos ([…], time 28 day): 1.5% | Fbg ([…], time 28 day): 204 mg/dL | Hb ([…], time 28 day): 15 g/dL | Ht ([…], time 28 day): 44.7% | Lym ([…], time 28 day): 79.2% | MCH ([…], time 28 day): 19.1 pg | MCHC ([…], time 28 day): 33.5% | MCV ([…], time 28 day): 57.1 fL | Mono ([…], time 28 day): 5.8% | Neu ([…], time 28 day): 14.2% | PT ([…], time 28 day): 12.5 s | Plat ([…], time 28 day): 99.8 x10_4/uL | RBC ([…], time 28 day): 783.2 x10_4/ul | Ret ([…], time 28 day): 2.7% | WBC ([…], time 28 day): 130.6 x10_2/uL | KIDNEY_L ([…], time 7 day): 1.1 g | KIDNEY_R ([…], time 7 day): 1.1 g | KIDNEY_TOTAL ([…], time 7 day): 2.1 g | KIDNEY_L ([…], time 14 day): 1.2 g | KIDNEY_R ([…], time 14 day): 1.3 g | KIDNEY_TOTAL ([…], time 14 day): 2.5 g | KIDNEY_L ([…], time 28 day): 1.3 g | KIDNEY_R ([…], time 28 day): 1.4 g | KIDNEY_TOTAL ([…], time 28 day): 2.8 g | LIVER ([…], time 7 day): 18.9 g | LIVER ([…], time 14 day): 22.3 g | LIVER ([…], time 28 day): 22.9 g | A/G ([…], time 7 day): 2.6 | ALP ([…], time 7 day): 853.5 IU/L | ALT ([…], time 7 day): 34.2 IU/L | AST ([…], time 7 day): 61.2 IU/L | BUN ([…], time 7 day): 22 mg/dL | CRE ([…], time 7 day): 0.6 mg/dL | Ca ([…], time 7 day): 10.5 mg/dL | Cl ([…], time 7 day): 106.8 meq/L | DBIL ([…], time 7 day): 0.0225 mg/dL | GLC ([…], time 7 day): 190 mg/dL | IP ([…], time 7 day): 8.1 mg/dL | K ([…], time 7 day): 4.5 meq/L | LDH ([…], time 7 day): 201.5 IU/L | Na ([…], time 7 day): 140.7 meq/L | PL ([…], time 7 day): 157.5 mg/dL | RALB ([…], time 7 day): 4.7 g/dL | TBIL ([…], time 7 day): 0.2 mg/dL | TC ([…], time 7 day): 100.8 mg/dL | TG ([…], time 7 day): 35.8 mg/dL | TP ([…], time 7 day): 6.5 g/dL | gamma-GTP ([…], time 7 day): 1 IU/L | A/G ([…], time 14 day): 2.3 | ALP ([…], time 14 day): 1092 IU/L | ALT ([…], time 14 day): 36.2 IU/L | AST ([…], time 14 day): 63.6 IU/L | BUN ([…], time 14 day): 21 mg/dL | CRE ([…], time 14 day): 0.6 mg/dL | Ca ([…], time 14 day): 10.4 mg/dL | Cl ([…], time 14 day): 107.4 meq/L | DBIL ([…], time 14 day): 0.022 mg/dL | GLC ([…], time 14 day): 186 mg/dL | IP ([…], time 14 day): 7.4 mg/dL | K ([…], time 14 day): 4.3 meq/L | LDH ([…], time 14 day): 163.8 IU/L | Na ([…], time 14 day): 141.7 meq/L | PL ([…], time 14 day): 144.2 mg/dL | RALB ([…], time 14 day): 4.4 g/dL | TBIL ([…], time 14 day): 0.3 mg/dL | TC ([…], time 14 day): 87.4 mg/dL | TG ([…], time 14 day): 36.6 mg/dL | TP ([…], time 14 day): 6.3 g/dL | gamma-GTP ([…], time 14 day): 1 IU/L | A/G ([…], time 28 day): 2.2 | ALP ([…], time 28 day): 795 IU/L | ALT ([…], time 28 day): 42.5 IU/L | AST ([…], time 28 day): 64.5 IU/L | BUN ([…], time 28 day): 21 mg/dL | CRE ([…], time 28 day): 0.5 mg/dL | Ca ([…], time 28 day): 9.6 mg/dL | Cl ([…], time 28 day): 108.2 meq/L | DBIL ([…], time 28 day): 0.02 mg/dL | GLC ([…], time 28 day): 178.2 mg/dL | IP ([…], time 28 day): 7 mg/dL | K ([…], time 28 day): 4 meq/L | LDH ([…], time 28 day): 108.2 IU/L | Na ([…], time 28 day): 141.9 meq/L | PL ([…], time 28 day): 120 mg/dL | RALB ([…], time 28 day): 4 g/dL | TBIL ([…], time 28 day): 0.3 mg/dL | TC ([…], time 28 day): 69.5 mg/dL | TG ([…], time 28 day): 34.5 mg/dL | TP ([…], time 28 day): 5.9 g/dL | gamma-GTP ([…], time 28 day): 1.2 IU/L
